In the kinase profiling compilation of Christmann-Franck et al. (2016):

Key:
Assay in all cases: KINOMEscan competition binding
Settings in all cases: compound 10.0 µM
DCLK3 (human) = DCLK3 (human) (UniProt Q9C098)
BUB1 (human) = BUB1 (human) (UniProt O43683)
BRAF (human) = BRAF (human) (UniProt P15056)
WNK1 (human) = WNK1 (human) (UniProt Q9H4A3)
NEK4 (human) = NEK4 (human) (UniProt P51957)
ACVR2B (human) = ACVR2B (human) (UniProt Q13705)
STK39 (human) = STK39 (human) (UniProt Q9UEW8)
EPHA5 (human) = EPHA5 (human) (UniProt P54756)
GSG2 (human) = GSG2 (human) (UniProt Q8TF76)
CSNK2A2 (human) = CSNK2A2 (human) (UniProt P19784)
CDK7 (human) = CDK7 (human) (UniProt P50613)
ERBB3 (human) = ERBB3 (human) (UniProt P21860)
ERBB3 (human), sequence (P21860 whole entry, looked up): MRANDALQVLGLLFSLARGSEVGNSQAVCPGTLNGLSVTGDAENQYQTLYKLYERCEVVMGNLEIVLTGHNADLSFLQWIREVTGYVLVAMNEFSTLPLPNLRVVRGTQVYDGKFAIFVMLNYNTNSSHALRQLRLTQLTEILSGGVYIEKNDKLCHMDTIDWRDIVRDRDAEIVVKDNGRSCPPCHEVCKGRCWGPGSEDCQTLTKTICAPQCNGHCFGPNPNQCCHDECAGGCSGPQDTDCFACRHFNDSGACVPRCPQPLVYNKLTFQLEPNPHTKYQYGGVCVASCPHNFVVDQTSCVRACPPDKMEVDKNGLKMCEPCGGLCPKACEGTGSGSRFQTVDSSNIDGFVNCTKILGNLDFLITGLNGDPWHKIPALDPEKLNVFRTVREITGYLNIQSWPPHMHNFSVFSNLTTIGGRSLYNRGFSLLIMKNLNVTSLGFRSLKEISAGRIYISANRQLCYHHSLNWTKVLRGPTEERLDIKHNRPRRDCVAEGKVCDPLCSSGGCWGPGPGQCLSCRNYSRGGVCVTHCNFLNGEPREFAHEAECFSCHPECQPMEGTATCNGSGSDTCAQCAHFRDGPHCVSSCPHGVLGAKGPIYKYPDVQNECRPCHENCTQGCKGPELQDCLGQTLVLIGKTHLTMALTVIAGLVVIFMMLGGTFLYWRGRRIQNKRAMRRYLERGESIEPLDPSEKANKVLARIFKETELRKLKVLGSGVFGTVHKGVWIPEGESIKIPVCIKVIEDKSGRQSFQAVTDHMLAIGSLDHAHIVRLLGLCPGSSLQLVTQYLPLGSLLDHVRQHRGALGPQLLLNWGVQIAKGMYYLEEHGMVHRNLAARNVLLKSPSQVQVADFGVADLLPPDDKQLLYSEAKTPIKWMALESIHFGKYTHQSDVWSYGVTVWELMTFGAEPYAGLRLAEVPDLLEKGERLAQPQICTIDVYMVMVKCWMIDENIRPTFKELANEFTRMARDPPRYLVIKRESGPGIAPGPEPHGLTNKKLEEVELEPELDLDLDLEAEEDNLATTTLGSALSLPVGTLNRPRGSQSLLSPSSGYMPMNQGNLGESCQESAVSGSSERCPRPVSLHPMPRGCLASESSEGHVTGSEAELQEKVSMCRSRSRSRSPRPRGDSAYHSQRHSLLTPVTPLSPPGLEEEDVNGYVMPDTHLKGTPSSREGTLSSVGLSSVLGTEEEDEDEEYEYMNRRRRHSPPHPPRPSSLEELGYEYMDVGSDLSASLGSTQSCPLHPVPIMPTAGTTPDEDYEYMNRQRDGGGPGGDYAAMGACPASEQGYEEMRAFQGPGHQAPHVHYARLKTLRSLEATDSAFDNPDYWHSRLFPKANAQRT

ACVRL1 (human) = ACVRL1 (human) (UniProt P37023)
SRC (human) = SRC (human) (UniProt P12931)
SRC (human), sequence (P12931 whole entry, looked up): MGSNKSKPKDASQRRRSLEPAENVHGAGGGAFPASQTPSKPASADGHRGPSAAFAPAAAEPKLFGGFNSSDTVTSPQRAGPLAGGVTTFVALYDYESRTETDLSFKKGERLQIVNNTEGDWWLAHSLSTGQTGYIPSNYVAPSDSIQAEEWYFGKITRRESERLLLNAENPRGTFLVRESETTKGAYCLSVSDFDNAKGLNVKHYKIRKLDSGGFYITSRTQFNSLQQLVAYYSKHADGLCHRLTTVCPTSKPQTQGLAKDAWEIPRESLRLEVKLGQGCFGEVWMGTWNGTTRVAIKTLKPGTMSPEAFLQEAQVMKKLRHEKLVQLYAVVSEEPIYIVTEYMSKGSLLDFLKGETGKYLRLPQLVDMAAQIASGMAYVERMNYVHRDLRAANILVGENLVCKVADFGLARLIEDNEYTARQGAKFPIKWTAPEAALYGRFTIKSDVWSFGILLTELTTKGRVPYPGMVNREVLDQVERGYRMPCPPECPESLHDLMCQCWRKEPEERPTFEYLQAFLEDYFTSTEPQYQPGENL

RAF1 (human) = RAF1 (human) (UniProt P04049)
STK17B (human) = STK17B (human) (UniProt O94768)
EIF2AK1 (human) = EIF2AK1 (human) (UniProt Q9BQI3)
MYLK (human) = MYLK (human) (UniProt Q15746)
PI4KB (human) = PI4KB (human) (UniProt Q9UBF8)
PI4KB (human), sequence (Q9UBF8 whole entry, looked up): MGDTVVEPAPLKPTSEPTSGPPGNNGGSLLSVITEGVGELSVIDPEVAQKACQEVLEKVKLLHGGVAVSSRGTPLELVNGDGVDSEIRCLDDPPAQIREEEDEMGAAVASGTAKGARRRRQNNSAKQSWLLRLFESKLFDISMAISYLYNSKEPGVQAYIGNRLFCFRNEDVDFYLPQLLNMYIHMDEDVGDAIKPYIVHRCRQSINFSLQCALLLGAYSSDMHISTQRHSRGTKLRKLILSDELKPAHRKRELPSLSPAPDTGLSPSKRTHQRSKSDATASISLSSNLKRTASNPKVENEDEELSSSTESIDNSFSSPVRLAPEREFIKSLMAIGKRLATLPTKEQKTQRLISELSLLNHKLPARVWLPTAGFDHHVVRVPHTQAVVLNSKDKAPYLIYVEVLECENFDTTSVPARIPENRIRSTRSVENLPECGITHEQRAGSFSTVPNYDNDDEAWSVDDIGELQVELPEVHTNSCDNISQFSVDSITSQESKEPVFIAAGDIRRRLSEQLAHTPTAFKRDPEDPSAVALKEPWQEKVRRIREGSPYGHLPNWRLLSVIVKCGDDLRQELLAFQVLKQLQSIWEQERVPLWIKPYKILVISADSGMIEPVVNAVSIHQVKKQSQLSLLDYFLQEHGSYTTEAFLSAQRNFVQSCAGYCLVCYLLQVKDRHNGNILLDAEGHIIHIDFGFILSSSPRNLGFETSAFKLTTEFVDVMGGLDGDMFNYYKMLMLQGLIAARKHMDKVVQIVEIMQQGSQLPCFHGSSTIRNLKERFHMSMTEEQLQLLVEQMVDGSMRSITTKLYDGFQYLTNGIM

[1] = target: JAK1 JH2 pseudokinase (human) (UniProt P23458)
JAK1 JH2 pseudokinase (human), sequence (P23458 whole entry, looked up): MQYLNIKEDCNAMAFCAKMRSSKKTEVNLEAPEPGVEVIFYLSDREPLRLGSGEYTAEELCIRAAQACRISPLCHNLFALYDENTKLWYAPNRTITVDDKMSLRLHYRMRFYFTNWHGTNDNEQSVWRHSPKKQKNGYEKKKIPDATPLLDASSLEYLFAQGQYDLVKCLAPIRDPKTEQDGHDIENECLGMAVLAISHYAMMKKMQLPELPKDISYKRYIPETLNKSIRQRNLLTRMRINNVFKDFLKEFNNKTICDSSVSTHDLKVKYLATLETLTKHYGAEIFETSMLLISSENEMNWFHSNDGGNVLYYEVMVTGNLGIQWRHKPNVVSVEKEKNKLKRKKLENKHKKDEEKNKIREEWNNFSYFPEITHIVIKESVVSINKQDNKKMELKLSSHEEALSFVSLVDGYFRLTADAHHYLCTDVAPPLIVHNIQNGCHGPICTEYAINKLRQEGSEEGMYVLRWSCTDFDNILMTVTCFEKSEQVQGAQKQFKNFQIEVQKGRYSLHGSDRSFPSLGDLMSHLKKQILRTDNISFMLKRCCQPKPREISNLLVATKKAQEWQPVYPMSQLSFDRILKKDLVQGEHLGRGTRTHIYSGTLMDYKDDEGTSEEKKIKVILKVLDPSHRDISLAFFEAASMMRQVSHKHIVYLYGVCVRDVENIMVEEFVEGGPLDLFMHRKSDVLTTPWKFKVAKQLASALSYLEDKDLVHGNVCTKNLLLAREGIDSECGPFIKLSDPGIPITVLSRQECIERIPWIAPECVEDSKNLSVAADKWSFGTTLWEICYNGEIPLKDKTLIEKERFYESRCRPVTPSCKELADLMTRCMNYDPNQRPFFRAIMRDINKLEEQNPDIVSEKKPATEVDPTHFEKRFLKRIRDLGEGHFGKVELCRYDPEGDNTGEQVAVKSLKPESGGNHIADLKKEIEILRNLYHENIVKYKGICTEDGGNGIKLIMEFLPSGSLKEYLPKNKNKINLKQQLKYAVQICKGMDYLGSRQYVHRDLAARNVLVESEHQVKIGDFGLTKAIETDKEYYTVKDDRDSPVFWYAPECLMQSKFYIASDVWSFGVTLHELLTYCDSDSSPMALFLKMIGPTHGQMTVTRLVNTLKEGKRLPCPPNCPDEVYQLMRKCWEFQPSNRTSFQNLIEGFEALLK

MAP4K2 (human) = MAP4K2 (human) (UniProt Q12851)
CSNK1D (human) = CSNK1D (human) (UniProt P48730)
AURKC (human) = AURKC (human) (UniProt Q9UQB9)
PRKX (human) = PRKX (human) (UniProt P51817)
[2] = test system: ABL1 (human), P00519 [H396P]
CDKL5 (human) = CDKL5 (human) (UniProt O76039)
ABL1 (human) = ABL1 (human) (UniProt P00519)
OXSR1 (human) = OXSR1 (human) (UniProt O95747)
ADCK4 (human) = ADCK4 (human) (UniProt Q96D53)
CSNK1G3 (human) = CSNK1G3 (human) (UniProt Q9Y6M4)
CLK4 (human) = CLK4 (human) (UniProt Q9HAZ1)
RPS6KA3 KD2 (human) = RPS6KA3 KD2 (human) (UniProt P51812)
WNK3 (human) = WNK3 (human) (UniProt Q9BYP7)
NTRK2 (human) = NTRK2 (human) (UniProt Q16620)
AURKA (human) = AURKA (human) (UniProt O14965)
AURKA (human), sequence (O14965 whole entry, looked up): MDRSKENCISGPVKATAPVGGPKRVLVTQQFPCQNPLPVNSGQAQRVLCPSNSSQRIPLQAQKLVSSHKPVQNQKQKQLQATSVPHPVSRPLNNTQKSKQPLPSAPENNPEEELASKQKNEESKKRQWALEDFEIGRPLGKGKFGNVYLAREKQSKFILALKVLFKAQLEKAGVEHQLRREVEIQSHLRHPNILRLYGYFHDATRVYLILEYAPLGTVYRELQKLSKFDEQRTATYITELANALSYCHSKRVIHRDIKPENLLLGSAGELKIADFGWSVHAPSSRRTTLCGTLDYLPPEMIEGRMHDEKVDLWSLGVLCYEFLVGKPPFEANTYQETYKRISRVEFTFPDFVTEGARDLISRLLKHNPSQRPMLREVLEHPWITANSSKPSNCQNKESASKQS

MAP4K1 (human) = MAP4K1 (human) (UniProt Q92918)
MAPKAPK5 (human) = MAPKAPK5 (human) (UniProt Q8IW41)
CDK4 CCND1 (human) = CDK4 CCND1 (human) (UniProt P11802+P24385)
[3] = test system: EGFR (human), P00533 [T790M]
[4] = test system: RET (human), P07949 [V804M]

NEK4 (human), sequence (P51957 whole entry, looked up): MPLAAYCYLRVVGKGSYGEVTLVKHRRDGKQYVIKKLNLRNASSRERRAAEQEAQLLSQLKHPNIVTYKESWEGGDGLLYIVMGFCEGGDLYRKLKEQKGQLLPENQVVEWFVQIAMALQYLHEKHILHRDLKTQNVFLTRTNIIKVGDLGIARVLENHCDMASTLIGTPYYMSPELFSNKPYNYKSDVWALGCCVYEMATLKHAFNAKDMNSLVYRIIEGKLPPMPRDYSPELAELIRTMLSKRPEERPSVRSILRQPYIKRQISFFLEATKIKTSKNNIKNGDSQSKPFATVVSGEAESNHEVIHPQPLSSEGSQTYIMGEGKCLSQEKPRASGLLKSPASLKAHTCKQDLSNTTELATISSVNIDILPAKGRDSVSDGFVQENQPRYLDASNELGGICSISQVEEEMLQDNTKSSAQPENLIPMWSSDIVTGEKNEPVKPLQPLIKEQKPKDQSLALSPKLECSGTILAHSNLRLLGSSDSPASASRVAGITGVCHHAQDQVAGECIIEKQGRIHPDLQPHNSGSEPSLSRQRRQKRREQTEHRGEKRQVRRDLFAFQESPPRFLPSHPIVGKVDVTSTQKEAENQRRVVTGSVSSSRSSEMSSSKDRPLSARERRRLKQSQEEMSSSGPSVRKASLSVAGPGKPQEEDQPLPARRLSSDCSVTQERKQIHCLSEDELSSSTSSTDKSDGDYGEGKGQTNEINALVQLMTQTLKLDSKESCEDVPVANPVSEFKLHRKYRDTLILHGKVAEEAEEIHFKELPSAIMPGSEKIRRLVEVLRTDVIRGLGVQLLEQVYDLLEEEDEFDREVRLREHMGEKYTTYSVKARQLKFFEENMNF

SMILES | kinase still bound, per cent of control (DCLK3 (human)) [%] | kinase still bound, per cent of control (NEK4 (human)) [%] | kinase still bound, per cent of control (ACVR2B (human)) [%] | kinase still bound, per cent of control (STK39 (human)) [%] | kinase still bound, per cent of control (EPHA5 (human)) [%] | kinase still bound, per cent of control (CSNK2A2 (human)) [%] | kinase still bound, per cent of control (ERBB3 (human)) [%] | kinase still bound, per cent of control (ACVRL1 (human)) [%] | kinase still bound, per cent of control (SRC (human)) [%] | kinase still bound, per cent of control (RAF1 (human)) [%] | kinase still bound, per cent of control (STK17B (human)) [%] | kinase still bound, per cent of control (MYLK (human)) [%] | kinase still bound, per cent of control (PI4KB (human)) [%] | kinase still bound, per cent of control [1] [%] | kinase still bound, per cent of control (MAP4K2 (human)) [%] | kinase still bound, per cent of control (CSNK1D (human)) [%] | kinase still bound, per cent of control (AURKC (human)) [%] | kinase still bound, per cent of control (PRKX (human)) [%] | kinase still bound, per cent of control (CDKL5 (human)) [%] | kinase still bound, per cent of control (OXSR1 (human)) [%] | other results
N#CCNC(=O)c1ccc(-c2ccnc(Nc3ccc(N4CCOCC4)cc3)n2)cc1 | 0.45 | 100 | 54 | 47 | 87 | 6.2 | 100 | 47 | 100 | 100 | 2.6 | 100 | 17 | 100 | 40 | 100 | 18 | 74 | 65 | 58 | kinase still bound, per cent of control (BUB1 (human)): 3.5%; kinase still bound, per cent of control (BRAF (human)): 74%; kinase still bound, per cent of control (WNK1 (human)): 75%; kinase still bound, per cent of control (GSG2 (human)): 67%; kinase still bound, per cent of control (CDK7 (human)): 3.8%; kinase still bound, per cent of control (EIF2AK1 (human)): 100%; kinase still bound, per cent of control [2]: 65%; kinase still bound, per cent of control (ABL1 (human)): 54%; kinase still bound, per cent of control (ADCK4 (human)): 33%; kinase still bound, per cent of control (CSNK1G3 (human)): 100%; kinase still bound, per cent of control (CLK4 (human)): 15%; kinase still bound, per cent of control (RPS6KA3 KD2 (human)): 100%; kinase still bound, per cent of control (WNK3 (human)): 90%; kinase still bound, per cent of control (NTRK2 (human)): 67%; kinase still bound, per cent of control (AURKA (human)): 12%; kinase still bound, per cent of control (MAP4K1 (human)): 11%; kinase still bound, per cent of control (MAPKAPK5 (human)): 4.4%; kinase still bound, per cent of control (CDK4 CCND1 (human)): 13%
COc1cc2ncn(-c3cc(OCc4ccccc4C(F)(F)F)c(C(N)=O)s3)c2cc1OC | 100 | 52 | 58 | 89 | 90 | 17 | 100 | 100 | 64 | 87 | 85 | 50 | 100 | 100 | 53 | 81 | 27 | 98 | 73 | 100 | kinase still bound, per cent of control (BRAF (human)): 100%; kinase still bound, per cent of control (ABL1 (human)): 60%; kinase still bound, per cent of control (ADCK4 (human)): 71%; kinase still bound, per cent of control (CSNK1G3 (human)): 100%; kinase still bound, per cent of control (CLK4 (human)): 45%; kinase still bound, per cent of control (NTRK2 (human)): 59%; kinase still bound, per cent of control [3]: 100%; kinase still bound, per cent of control (AURKA (human)): 100%; kinase still bound, per cent of control (MAP4K1 (human)): 44%; kinase still bound, per cent of control (MAPKAPK5 (human)): 91%; kinase still bound, per cent of control (CDK4 CCND1 (human)): 91%; kinase still bound, per cent of control [4]: 62%
O=C1NC(=O)/C(=C/c2ccc3nccc(-c4ccncc4)c3c2)S1 | 11 | 96 | 20 | 71 | 91 | 1.2 | 88 | 85 | 69 | 47 | 0.6 | 19 | 0.4 | 57 | 5.8 | 3.6 | 56 | 19 | 76 | 87 | kinase still bound, per cent of control (BUB1 (human)): 12%; kinase still bound, per cent of control (WNK1 (human)): 57%; kinase still bound, per cent of control (GSG2 (human)): 6.2%; kinase still bound, per cent of control (CDK7 (human)): 1.7%; kinase still bound, per cent of control (EIF2AK1 (human)): 82%; kinase still bound, per cent of control (ADCK4 (human)): 35%; kinase still bound, per cent of control (CSNK1G3 (human)): 2.4%; kinase still bound, per cent of control (CLK4 (human)): 0.2%; kinase still bound, per cent of control (RPS6KA3 KD2 (human)): 70%; kinase still bound, per cent of control (WNK3 (human)): 86%; kinase still bound, per cent of control (NTRK2 (human)): 73%; kinase still bound, per cent of control [3]: 76%; kinase still bound, per cent of control (AURKA (human)): 69%; kinase still bound, per cent of control (MAP4K1 (human)): 26%; kinase still bound, per cent of control (MAPKAPK5 (human)): 0.2%; kinase still bound, per cent of control (CDK4 CCND1 (human)): 92%; kinase still bound, per cent of control [4]: 96%
